The test concerns the target T1, EPHB3 (Homo sapiens, UniProt P54753).
T1 construct: purchased Thermo Fisher Scientific (Life Technologies) SelectScreen
Briefly: SelectScreen Z'LYTE. The format is biochemical. Put shortly:
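NU5455 was profiled across the SelectScreen Broad panel of kinase activity and binding assays. Z'LYTE reactions such as CSF1R ran at apparent Km ATP, while the Adapta CAMK1 assay used ATP listed as 10. Values are given as percent.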

The structures appear in SMILES notation.

The text below walks through data of publication PMC6934184, “Selective DNA-PKcs inhibition extends the therapeutic index of localized radiotherapy and chemotherapy” (The Journal of Clinical Investigation, 2019).

T1 sequence (P54753 34-998): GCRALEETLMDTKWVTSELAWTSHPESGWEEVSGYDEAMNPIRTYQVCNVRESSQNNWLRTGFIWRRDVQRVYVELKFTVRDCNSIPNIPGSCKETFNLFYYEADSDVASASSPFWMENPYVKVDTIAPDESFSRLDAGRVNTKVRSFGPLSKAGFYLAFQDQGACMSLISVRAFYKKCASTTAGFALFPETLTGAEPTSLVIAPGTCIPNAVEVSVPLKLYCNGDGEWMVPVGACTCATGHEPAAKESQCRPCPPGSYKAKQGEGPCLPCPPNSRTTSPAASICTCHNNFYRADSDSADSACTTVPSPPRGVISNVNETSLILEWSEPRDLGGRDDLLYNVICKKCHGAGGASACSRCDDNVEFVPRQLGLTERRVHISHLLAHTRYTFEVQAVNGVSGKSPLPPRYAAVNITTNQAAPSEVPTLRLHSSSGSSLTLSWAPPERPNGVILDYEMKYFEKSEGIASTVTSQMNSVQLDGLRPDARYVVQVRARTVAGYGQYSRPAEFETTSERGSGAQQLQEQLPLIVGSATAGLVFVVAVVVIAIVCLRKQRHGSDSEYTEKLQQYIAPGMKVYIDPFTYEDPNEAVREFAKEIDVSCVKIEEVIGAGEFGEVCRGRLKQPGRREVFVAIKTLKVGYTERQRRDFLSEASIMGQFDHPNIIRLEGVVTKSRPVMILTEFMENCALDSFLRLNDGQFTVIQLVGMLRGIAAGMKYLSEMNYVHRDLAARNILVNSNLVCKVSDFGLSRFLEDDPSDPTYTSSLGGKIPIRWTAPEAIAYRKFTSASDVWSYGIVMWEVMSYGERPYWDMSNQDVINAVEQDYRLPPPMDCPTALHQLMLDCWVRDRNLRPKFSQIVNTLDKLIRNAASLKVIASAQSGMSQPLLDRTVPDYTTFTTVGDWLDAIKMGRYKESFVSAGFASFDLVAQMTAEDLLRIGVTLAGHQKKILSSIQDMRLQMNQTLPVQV

`CN(C(=O)CN1CCOCC1)c1ccc2sc3c(-c4cccc5c(=O)cc(N6CC7CCC(C6)O7)oc45)cccc3c2c1` [NU5455]: testing at 1 µM gave an inhibition of 1.1%.

For orientation: inhibition means the relative decrease from the control value, in per cent. A higher inhibition goes with strong suppression.
